Measurements from PubChem BioAssay AID743394 (Broad Institute, 2014).
Calls of active or inactive are those of the source.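 How the source made its calls: active means 40% activation versus positive control reached by fitted dose-response curve at or below highest valid tested dose; inconclusive means poor fit quality, or flat fit with activation between 30% and 70%; inactive means the rest.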

Experiment: inactive X chromosome reactivation in XiGFP fibroblasts, dose response, imaging, 68-5-11 mouse fibroblasts, GFP, cherry-pick (AID 743394);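 further: sensitizer 5-aza-dC present in the wells at 0.5 mM final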
Details: 68-5-11 mouse fibroblast XiGFP reporter, % GFP-positive imaging, 3 d; at 19.5 µM (top of the series)

| Compound | activation |
| --- | --- |
| COCCCn1c(N)c(C(=O)Nc2ccccc2)c2nc3ccccc3nc21 | -0.127% (inactive) |
| O=C(c1cccc2ccccc12)C1CCCN(Cc2ccon2)C1 (centres undefined) | 0.107% (inactive) |
| O=[N+]([O-])c1ccc(O)c([N+](=O)[O-])c1 | -0.014% (inactive) |
| COC(=O)Cn1cc(/C=C2\C(=O)NC(=O)N(c3ccc(OC)cc3)C2=O)c2ccccc21 | 0.09% (inactive) |

Same assay, conditions: 68-5-11 mouse fibroblast XiGFP reporter, % GFP-positive imaging, 3 d; at 19.5 µM (top of the series); cells co-treated with 5-aza-dC sensitizer; scaled: neutral wells 0, ellipticine wells 100

| Compound | activation |
| --- | --- |
| Cc1nc(NC(=O)C(Cl)Cl)sc1C(=O)N(C)C | -0.034% (inactive) |
| CCOC(=O)c1nn(-c2ccc3ccccc3c2)cc1O | 0.359% (inactive) |
| Cc1ccc(O)c(N=Nc2ccc(S(=O)(=O)N3CCCC3)cc2)c1 | 0.067% (inactive) |
| CN(C)/C=C1\C=C2C(=O)c3ccccc3N2C1=O | 4.14% (inactive) |
| O=C(O)c1ccccc1CSc1nc2ccccc2n1Cc1ccccc1C(=O)O | 0.715% (inactive) |
| COc1ccc(/C=c2/sc3nc(-c4ccccc4)c(-c4ccccc4)n3c2=O)cc1 | -0.002% (inactive) |
| O=C(COC(=O)c1cc(=O)[nH]c(=O)[nH]1)Nc1cccc(S(=O)(=O)N2CCCCC2)c1 | 0.052% (inactive) |
| CNc1ccc([N+](=O)[O-])cc1C(=O)O | 0.697% (inactive) |
| O=C(CC1CC1)N1CC(=O)N2[C@@H](CO)[C@H](c3ccc(C#Cc4ccc(F)cc4)cc3)[C@@H]2C1 | -0.031% (inactive) |
| Cc1ccc(C(=O)Cn2cncn2)cc1 | -0.053% (inactive) |
| Cc1ccccc1NC(=O)CN1C(=O)S/C(=C\c2ccc(-c3cc(C(=O)O)ccc3C)o2)C1=O | 0.024% (inactive) |
| COc1ccc(-c2ccc(C#N)c(SCC(=O)NCc3ccco3)n2)cc1OC | 2.59% (inactive) |
| Cc1ccc(N2C(=O)C3C4C=CC(CNC(=S)N5CCN(c6ccccc6)CC5)(O4)C3C2=O)cc1 (centres undefined) | -0.008% (inactive) |
| CC(C)(C=O)C1=CC(=O)c2ccccc2C1=O | -0.07% (inactive) |
| CN(C)CC(=O)N1CC2(C1)[C@@H](c1ccccc1)[C@H](CO)N2C(=O)C1CC1 | -0.015% (inactive) |
| COc1ccc(OC)c(NC(=O)Nc2ccc3[nH]ccc3c2)c1 | -0.035% (inactive) |
| Cc1ccc(N(C)C(=O)C2CCN(S(=O)(=O)c3ccc4c(c3)oc(=O)n4C)CC2)cc1 | 0.016% (inactive) |
| CC(C)(C)NC(=O)C(c1c[nH]c2ccccc12)N(C(=O)Cn1nnc(-c2ccc(Cl)cc2)n1)c1ccccc1F (centres undefined) | 0.104% (inactive) |
| Cc1ccc(-c2[nH]c(=S)[nH]c(=O)c2C#N)cc1 | -0.003% (inactive) |
| COc1ccccc1/C=C/C(=O)OCC(=O)NC(=O)NC1CCCC1 | -0.012% (inactive) |
| c1ccc(CCNc2nc(-c3ccccn3)nc3ccccc23)cc1 | -0.035% (inactive) |

| Compound | activation |
| --- | --- |
| CCOC(=O)C1CCN(c2c(NCc3ccc(C(=O)NC4CCCC4)cc3)c(=O)c2=O)CC1 | -0.034% (inactive) |
| CC(C)CC(=O)Nc1c2c(nn1-c1ccc(F)cc1)CSC2 | 0.542% (inactive) |
| O=C(CNC(=O)c1ccccc1F)OCc1nc2ccccc2s1 | -0.127% (inactive) |
| CC(C)c1ccc(CN2CCN(C(=O)CSc3nnnn3C3CC3)CC2)cc1 | 0.2% (inactive) |
| COc1ccc(-c2nn(-c3ccccc3)cc2C(=O)NC(=S)Nc2cc(Cl)ccc2Cl)cc1 | 3.67% (inactive) |
| COc1ccc(S(=O)(=O)N(C)C[C@H]2Oc3ccc(NS(=O)(=O)c4ccc(F)cc4)cc3CC(=O)N([C@@H](C)CO)C[C@@H]2C)cc1 | 0.034% (inactive) |
| O=C(Nc1ccc(F)cc1)N1CC(=O)N2[C@H](CO)[C@H](c3ccc(C#Cc4ccc(F)cc4)cc3)[C@@H]2C1 | -0.031% (inactive) |
| CC(C)C#Cc1ccc([C@@H]2[C@@H](CO)N3C(=O)CN(C(=O)c4ccc5c(c4)OCO5)C[C@H]23)cc1 | 0.09% (inactive) |
| CC(C)NC(=O)N(C)C[C@@H]1OCCCC[C@H](C)Oc2ccc(NC(=O)Nc3ccc(C(F)(F)F)cc3)cc2C(=O)N([C@H](C)CO)C[C@@H]1C | 0.005% (inactive) |
| C[C@@H]1CN([C@@H](C)CO)S(=O)(=O)c2ccc(C#CC3CC3)cc2O[C@H]1CN(C)Cc1ccc(F)cc1 | 0.063% (inactive) |
| COc1ccc(Nc2nc(N)c(C(=O)c3ccc(F)cc3)s2)cc1 | 0.551% (inactive) |
| CCN1CCN(c2cc(C)c3cc(NC(=O)c4cccs4)ccc3n2)CC1 | -0.032% (inactive) |
| CC(=NNc1ccc2ccccc2n1)c1ccccn1 | 1.93% (inactive) |
| COc1cc(/C=C2\SC(=S)N(N3CCOCC3)C2=O)cc(OC)c1OC | 0.067% (inactive) |
| COCCNC(=S)N(Cc1cccnc1)Cc1ccc(OC)c(OC)c1 | 0.071% (inactive) |
| Cc1ccc(S(=O)(=O)c2ccc([N+](=O)[O-])cn2)cc1 | -0.05% (inactive) |
| CCC(=O)N1CC(=O)N2[C@@H](CO)[C@@H](c3ccc(-c4ccccc4F)cc3)[C@@H]2C1 | 0% (inactive) |
| CCc1ccc(CCC(=O)Nc2ncc(Cc3ccccc3Cl)s2)o1 | 0.223% (inactive) |
| CC(=O)Nc1sc(C)c(C)c1C(=O)OCC(=O)Nc1cc(S(C)(=O)=O)ccc1Cl | 0.641% (inactive) |
| CCCCNc1nc2c(-c3ccccc3)nnn2c2ccccc12 | 0.101% (inactive) |
| O=C1c2ccccc2C(=O)C1c1ccccc1 | -0.024% (inactive) |

| Compound | activation |
| --- | --- |
| COc1ccc(-c2nnc(NC(=O)c3ccc(F)cc3)o2)cc1 | -0.035% (inactive) |
| CN(Cc1cccs1)C(=O)Cc1c[nH]c2ccccc12 | -0.024% (inactive) |
| COc1ccccc1C#Cc1ccc2c(c1)O[C@H](CN(C)Cc1cncnc1)[C@@H](C)CN([C@H](C)CO)S2(=O)=O | 0.045% (inactive) |
| COc1ccccc1-c1cc(C(=O)N2CCCc3ccccc32)no1 | 0.179% (inactive) |
| Cc1cc(NC(=O)CSc2nnc(-c3c[nH]c4ccccc34)n2-c2ccc(F)cc2)no1 | 0.139% (inactive) |
| Cc1[nH]c2ccccc2c1/C=N/Nc1nc2ccccc2[nH]1 | -0.075% (inactive) |
| C[C@H]1CN([C@@H](C)CO)S(=O)(=O)c2ccc(Br)cc2O[C@H]1CN(C)C(=O)c1cccnc1 | -0.033% (inactive) |
| COC(=O)c1cc(C(=O)N2CCN(c3ccccc3OC)CC2)cc([N+](=O)[O-])c1 | 0.681% (inactive) |
| Cn1c(=O)[nH]c(=O)c2c1nc1n2CCCN1Cc1ccccc1 | 0.106% (inactive) |
| O=C1N(c2ccccc2)C[C@@H]2C[C@@H](c3cc4ccccc4o3)N3CCC[C@@]123 | -0.008% (inactive) |
| CCCCCC[n+]1ccccc1/C=C/c1ccc(N(C)C)cc1 | 6.32% (inactive) |
| CC(=O)Nc1ccc(N2Cc3ccccc3C2)cc1 | -0.053% (inactive) |
| Cc1onc(-c2c(Cl)cccc2Cl)c1-c1nc2cc(Cl)ccc2c(=O)o1 | -0.032% (inactive) |
| CCOCCCn1c(=NC(C)=O)c(C#N)cc2c(=O)n3cccc(C)c3nc21 | 0.035% (inactive) |
| COc1ccc(-n2nc(C#N)c(Cl)cc2=O)cc1 | 0.745% (inactive) |
| Cc1cc(=O)[nH]c(N/N=C/c2cc(C)n(CC(F)(F)F)c2C)n1 | 0.184% (inactive) |
| Cc1ccc(S(=O)(=O)NN2C(=O)/C(=C/c3ccccn3)SC2=S)cc1 | 0.025% (inactive) |
| Cn1c2ccccc2c2cnn(CC(=O)Nc3ccccc3Br)c(=O)c21 | 0.034% (inactive) |
| COC(=O)c1sc(-c2ccc(C(C)(C)C)cc2)cc1NC(=O)c1ccccc1C(=O)O | -0.053% (inactive) |
| COCCCn1c(C)cc(C(=O)COC(=O)CCc2nc3ccccc3c(=O)[nH]2)c1C | 0.39% (inactive) |
| CCCn1c(SCC(=O)NCc2ccc(C)cc2)n[nH]c1=O | -0.121% (inactive) |

| Compound | activation |
| --- | --- |
| CCOC(=O)Nc1ccc2nc(-c3cscn3)[nH]c2c1 | 0.097% (inactive) |
| COc1ccc(NC(=O)N(C)[C@H]2C[C@H]3c4[nH]c5ccc(-c6ccc(OC)cc6)cc5c4CCN3C(=O)[C@H]2[C@H](C)O)cc1 | 0.523% (inactive) |
| Cc1ccc2c(COC(=O)C34CC5CC(CC(C5)C3)C4)cc(=O)oc2c1 | -0.07% (inactive) |
| CCNC(=O)C[C@@H]1CC[C@H]2[C@@H](COC[C@@H](O)CN2C(=O)C2CCCC2)O1 | -0.016% (inactive) |
| Cc1cc(NC(=O)c2c(-c3c(Cl)cccc3Cl)noc2C)n(C)n1 | -0.127% (inactive) |
| CCOC(=O)c1ccc(NC(=O)C2(N3C(=O)c4ccccc4C3=O)CCCC2)cc1 | 0.082% (inactive) |
| S=C(SSC(=S)N1CCOCC1)N1CCOCC1 | -0.127% (inactive) |
| C/C(=N\NC(=O)CC1N=C(Cc2ccccc2)NNC1=O)c1ccc(Br)cc1 (centres undefined) | 0.028% (inactive) |
| Cc1cccc(NCc2ccc(O)c3ncccc23)c1C | 0.288% (inactive) |
| Cc1n[nH]c(=S)n(/N=C/c2cccc([N+](=O)[O-])c2)c1=O | -0.091% (inactive) |
| Cc1ccnc(NS(=O)(=O)c2ccc3c(c2)CCO3)c1 | 0.025% (inactive) |
| ClC1CCCCC1n1nnc2ccccc21 (centres undefined) | 0.006% (inactive) |
| CCCNNC(=O)C(O)(c1ccccc1)c1ccccc1 | -0.099% (inactive) |
| COc1cccc(CNC(=O)c2cc(S(=O)(=O)N3CCOCC3)cn2C)c1 | 0.576% (inactive) |
| O=C(COC(=O)c1ccc(NS(=O)(=O)c2cccs2)cc1O)NC1CCCCC1 | 0.098% (inactive) |
| O=C(NCCOc1ccccc1)c1cc([N+](=O)[O-])ccc1N1CCOCC1 | 0.193% (inactive) |
| CC[N+]1=C(C)C(C)(C)c2cc(C)ccc21 | -0.032% (inactive) |
| CN1CCN(S(=O)(=O)c2ccc(C#N)cc2)C(c2ccccc2)C1 (centres undefined) | 0.227% (inactive) |
| CCOc1ccc(NC(=S)NC(C)c2cccs2)cc1 (centres undefined) | 0.358% (inactive) |
| Cc1ccccc1-c1ccc(C2[C@@H]3CN(Cc4cocn4)C[C@H]2N3)cc1 (some centres undefined) | -0.031% (inactive) |
| Cc1ccc(Cl)cc1NC(=O)CCC(=O)O | -0.002% (inactive) |

Same assay, conditions: 68-5-11 mouse fibroblast XiGFP reporter, % GFP-positive imaging, 3 d; at 21 µM (top of the series); cells co-treated with 5-aza-dC sensitizer; scaled: neutral wells 0, ellipticine wells 100

| Compound | activation |
| --- | --- |
| Cc1ccc(-c2ccccc2[C@@H]2[C@H](C#N)N(S(C)(=O)=O)[C@H]2CO)cc1 | 0.241% (inactive) |
